In US20240124431A1, “2,3-DIHYDRO-4H-BENZO[B][1,4]OXAZIN-4-YL)(5-(PHENYL)-PYRIDIN-3-YL)METHANONE DERIVATIVES AND SIMILAR COMPOUNDS AS CYP11A1 INHIBITORS FOR THE TREATMENT OF PROSTATE CANCER” (ORION CORPORATION, priority 2020, published 2024):

Target: T1, CYP11A1 (Homo sapiens, UniProt P05108)
T1 construct: endogenous in cells; host or cells: NCI-H295R
T1 sequence (P05108 40-521): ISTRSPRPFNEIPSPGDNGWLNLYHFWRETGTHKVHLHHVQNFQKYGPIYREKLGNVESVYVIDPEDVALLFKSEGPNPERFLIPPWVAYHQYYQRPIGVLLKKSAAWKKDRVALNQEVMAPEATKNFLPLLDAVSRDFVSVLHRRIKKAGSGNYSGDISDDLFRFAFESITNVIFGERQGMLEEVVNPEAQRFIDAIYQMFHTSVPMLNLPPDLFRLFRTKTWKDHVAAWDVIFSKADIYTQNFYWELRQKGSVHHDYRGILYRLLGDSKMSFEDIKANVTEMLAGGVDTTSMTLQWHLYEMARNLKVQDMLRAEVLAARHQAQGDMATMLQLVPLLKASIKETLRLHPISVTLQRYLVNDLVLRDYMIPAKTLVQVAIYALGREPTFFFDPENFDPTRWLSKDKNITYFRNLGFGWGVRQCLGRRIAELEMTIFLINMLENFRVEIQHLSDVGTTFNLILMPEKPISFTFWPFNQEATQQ
Test: CYP11A1 inhibition: pregnenolone biosynthesis measured by ELISA in NCI-H295R cells
Format: cell-based
Conditions: NCI-H295R cells treated for 24 hours, 10 concentrations in duplicates, read-out: IC50 on CYP11A1 inhibition (Group)
Experimental: The ability of the test compounds to inhibit pregnenolone biosynthesis was measured by enzyme-linked immunosorbent assay (ELISA) detecting pregnenolone (Abnova Pregnenolone ELISA Kit, KA1912). […] To determine the half maximal inhibitory concentration (IC50) of the test compounds on CYP11A1 inhibition, the cells were treated for 24 hours with increasing concentrations of the test compound. The final DMSO concentration was 0.4%. Medium samples were diluted 1:6 and pregnenolone amounts determined with ELISA. Manufacturer's recommended protocols were used and pregnenolone (Sigma-Aldrich, P9129) standards were prepared in cell culture medium. Absorbance (A450) was measured with Envision plate reader (PerkinElmer). All the test compounds were studied at 10 concentrations in duplicates.

Row | SMILES | IC50
1 | CC1CCc2ccccc2N1C(=O)c1cncc(-c2ccc(F)cc2)n1 (stereo not drawn) [Compound 22, (6-(4-Fluorophenyl)pyrazin-2-yl)(2-methyl-3,4-dihydroquinolin-1(2H)-yl)-methanone] | < 50 nM
2 | Fc1ccc(-c2cncc(CN3CCCc4ccccc43)c2)cc1 [Compound 89, 1-((5-(4-Fluorophenyl)pyridin-3-yl)methyl)-1,2,3,4-tetrahydroquinoline] | 51 to 200 nM
3 | O=C(c1cncc(-c2ccc(CO)cc2)c1)N1CCOc2ccccc21 [Compound 65, (2,3-Dihydro-4H-benzo[b][1,4]oxazin-4-yl)(5-(4-(hydroxymethyl)phenyl)pyridin-3-yl)methanone] | 201 to 2500 nM
4 | O=C(c1cncc(-c2ccc3c(c2)OCC3)n1)N1CCOc2ccccc21 [Compound 13, (2,3-Dihydro-4H-benzo[b][1,4]oxazin-4-yl)(6-(2,3-dihydrobenzofuran-6-yl)pyrazin-2-yl)methanone] | < 50 nM
5 | O=C(c1cncc(-c2cccnc2)c1)N1CCCc2ccccc21 [Compound 70, [3,3′-Bipyridin]-5-yl(3,4-dihydroquinolin-1(2H)-yl)methanone] | 201 to 2500 nM
6 | O=C(c1cncc(-c2ccc(F)cc2)c1)N1CCOc2cc(F)ccc21 [Compound 2, (7-Fluoro-2,3-dihydro-4H-benzo[b][1,4]oxazin-4-yl)(5-(4-fluorophenyl)pyridin-3-yl)methanone] | < 50 nM
7 | Fc1ccc(-c2cncc(CN3CCc4ccccc43)c2)cc1 [Compound 90, 1-((5-(4-Fluorophenyl)pyridin-3-yl)methyl)indoline] | 51 to 200 nM
8 | COc1cccc(-c2cncc(C(=O)N3CCCc4ccccc43)n2)c1 [Compound 25, (3,4-Dihydroquinolin-1(2H)-yl)(6-(3-methoxyphenyl)pyrazin-2-yl)methanone] | < 50 nM
9 | Cc1ccc(-c2cncc(C(=O)N3CCOc4ccccc43)c2)cc1 [Compound 71, (2,3-Dihydro-4H-benzo[b][1,4]oxazin-4-yl)(5-(p-tolyl)pyridin-3-yl)methanone] | 201 to 2500 nM
10 | O=C(c1cncc(-c2ccc(F)cc2F)c1)N1CCOc2ccccc21 [Compound 28, (5-(2,4-Difluorophenyl)pyridin-3-yl)(2,3-dihydro-4H-benzo[b][1,4]oxazin-4-yl)-methanone] | < 50 nM
11 | O=C(Cc1cncc(-c2ccc(F)cc2)c1)N1CCCc2ccccc21 [Compound 79, 1-(3,4-Dihydroquinolin-1(2H)-yl)-2-(5-(4-fluorophenyl)pyridin-3-yl)ethan-1-one] | 201 to 2500 nM
12 | Cc1c(C(=O)N2CCOc3ccccc32)cncc1-c1ccc(F)cc1 [Compound 5, (2,3-Dihydro-4H-benzo[b][1,4]oxazin-4-yl)(5-(4-fluorophenyl)-4-methylpyridin-3-yl)methanone] | < 50 nM
13 | CCOC(=O)C1CN(C(=O)c2cncc(-c3ccc(F)cc3)n2)c2ccccc2O1 (stereo not drawn) [Compound 35, Ethyl 4-(6-(4-fluorophenyl)pyrazine-2-carbonyl)-3,4-dihydro-2H-benzo[b][1,4]-oxazine-2-carboxylate] | < 50 nM
14 | CC1(C)C2CN(c3cncc(C(=O)N4CCOc5ccccc54)c3)CC21 (stereo not drawn) [Compound 75] | 201 to 2500 nM
15 | C=C(c1ccccc1)c1cncc(C(=O)N2CCCc3ccccc32)c1 [Compound 51, (3,4-Dihydroquinolin-1(2H)-yl)(5-(1-phenylvinyl)pyridin-3-yl)methanone] | 51 to 200 nM
16 | O=C(c1cncc(-c2ccccc2F)c1)N1CCOc2ccccc21 [Compound 41, (2,3-Dihydro-4H-benzo[b][1,4]oxazin-4-yl)(5-(2-fluorophenyl)pyridin-3-yl)-methanone] | < 50 nM
17 | CN(C)Cc1ccc(-c2cncc(C(=O)N3CCCc4ccccc43)c2)cc1 [Compound 68, (3,4-Dihydroquinolin-1(2H)-yl)(5-(4-((dimethylamino)methyl)phenyl)pyridin-3-yl)methanone] | 201 to 2500 nM
18 | O=C(c1cncc(-c2ccc(F)cc2)c1)N1CCCc2ncccc21 [Compound 42, (3,4-Dihydro-1,5-naphthyridin-1(2H)-yl)(5-(4-fluorophenyl)pyridin-3-yl)-methanone] | 51 to 200 nM
19 | Cc1cn(-c2cncc(C(=O)N3CCCc4ccccc43)n2)cn1 [Compound 83, (3,4-Dihydroquinolin-1(2H)-yl)(6-(4-methyl-1H-imidazol-1-yl)pyrazin-2-yl)-methanone] | < 50 nM
20 | O=C(c1cncc(-c2cccc(OC(F)(F)F)c2)n1)N1CCOc2ccccc21 [Compound 9, (2,3-Dihydro-4H-benzo[b][1,4]oxazin-4-yl)(6-(3-(trifluoromethoxy)phenyl)-pyrazin-2-yl)methanone] | 51 to 200 nM

Row | SMILES | IC50
21 | COc1cccc(-c2cncc(C(=O)N3CCOc4ccccc43)c2)c1 [Compound 50, (2,3-Dihydro-4H-benzo[b][1,4]oxazin-4-yl)(5-(3-methoxyphenyl)pyridin-3-yl)-methanone] | 51 to 200 nM
22 | c1ccc(-c2cncc(CN3CCOc4ccccc43)c2)cc1 [Compound 81, 4-((5-Phenylpyridin-3-yl)methyl)-3,4-dihydro-2H-benzo[b][1,4]oxazine] | 201 to 2500 nM
23 | COc1ccc(-c2cncc(CC(=O)N3CCOc4ccccc43)c2)cc1 [Compound 80, 1-(2,3-Dihydro-4H-benzo[b][1,4]oxazin-4-yl)-2-(5-(4-methoxyphenyl)pyridin-3-yl)ethan-1-one] | 201 to 2500 nM
24 | O=C(c1cncc(C2=CCCCC2)c1)N1CCOc2ccccc21 [Compound 33, (5-(Cyclohex-1-en-1-yl)pyridin-3-yl)(2,3-dihydro-4H-benzo[b][1,4]oxazin-4-yl)methanone] | < 50 nM
25 | Cc1cnn(-c2cncc(C(=O)N3CCCc4ccccc43)c2)c1 [Compound 88, (3,4-Dihydroquinolin-1(2H)-yl)(5-(4-methyl-1H-pyrazol-1-yl)pyridin-3-yl)-methanone] | < 50 nM
26 | O=C(c1cncc(-c2ccncc2)c1)N1CCCc2ccccc21 [Compound 62, [3,4′-Bipyridin]-5-yl(3,4-dihydroquinolin-1(2H)-yl)methanone] | 201 to 2500 nM
27 | O=C(c1cncc(-c2ccccc2)n1)N1CCCc2ccccc21 [Compound 15, (3,4-Dihydroquinolin-1(2H)-yl)(6-phenylpyrazin-2-yl)methanone] | < 50 nM
28 | O=C(c1cncc(Cc2ccccc2)n1)N1CCCc2ccccc21 [Compound 85, (6-Benzylpyrazin-2-yl)(3,4-dihydroquinolin-1(2H)-yl)methanone] | 201 to 2500 nM
29 | O=C(c1cncc(N2CC(F)(F)C2)n1)N1CCOc2ccccc21 [Compound 77, (6-(3,3-Difluoroazetidin-1-yl)pyrazin-2-yl)(2,3-dihydro-4H-benzo[b][1,4]oxazin-4-yl)methanone] | 201 to 2500 nM
30 | O=C(c1cncc(-c2cccc(OC(F)(F)F)c2)c1)N1CCOc2ccccc21 [Compound 1, (2,3-Dihydro-4H-benzo[b][1,4]oxazin-4-yl)(5-(3-(trifluoromethoxy)phenyl)-pyridin-3-yl)methanone] | 201 to 2500 nM
31 | Fc1ccc(-c2cncc(CN3CCOc4ccccc43)c2)cc1 [Compound 91] | 201 to 2500 nM
32 | O=C(c1cncc(-c2ccc(F)cc2)c1)N1CCO[C@H]2CCCC[C@@H]21 [Compound 56, (5-(4-Fluorophenyl)pyridin-3-yl)((4aS,8aS)-octahydro-4H-benzo[b][1,4]oxazin-4-yl)methanone] | 51 to 200 nM
33 | CN1CCN(C(=O)c2cncc(-c3ccc(F)cc3)n2)c2ccccc21 [Compound 21, (6-(4-Fluorophenyl)pyrazin-2-yl)(4-methyl-3,4-dihydroquinoxalin-1(2H)-yl)-methanone] | < 50 nM
34 | COc1ccc2c(c1)CCCN2C(=O)c1cncc(-c2ccccc2)c1 [Compound 53, (6-Methoxy-3,4-dihydroquinolin-1(2H)-yl)(5-phenylpyridin-3-yl)methanone] | 51 to 200 nM
35 | O=C(c1cncc(-c2ccc3c(c2)OCC3)n1)N1CCOC2CCCCC21 (stereo not drawn) [Compound 29, (6-(2,3-Dihydrobenzofuran-6-yl)pyrazin-2-yl)(octahydro-4H-benzo[b][1,4]-oxazin-4-yl)methanone] | < 50 nM
36 | COc1ccc(-c2cncc(C(=O)N3CCOc4ccccc43)c2)cc1 [Compound 23, (2,3-Dihydro-4H-benzo[b][1,4]oxazin-4-yl)(5-(4-methoxyphenyl)pyridin-3-yl)-methanone] | < 50 nM
37 | O=C(c1cc(-c2ccc(F)cc2)cnn1)N1CCOc2ccccc21 [Compound 7, (2,3-Dihydro-4H-benzo[b][1,4]oxazin-4-yl)(5-(4-fluorophenyl)pyridazin-3-yl)-methanone] | 201 to 2500 nM
38 | O=C(c1cncc(-c2ccc(C(F)(F)F)cc2)c1)N1CCOc2ccccc21 [Compound 44, (2,3-Dihydro-4H-benzo[b][1,4]oxazin-4-yl)(5-(4-(trifluoromethyl)phenyl)pyridin-3-yl)methanone] | 51 to 200 nM
39 | COC(=O)c1ccc2c(c1)CCCN2C(=O)c1cncc(-c2ccccc2)c1 [Compound 67, Methyl 1-(5-phenylnicotinoyl)-1,2,3,4-tetrahydroquinoline-6-carboxylate] | 201 to 2500 nM
